Laboratory results: paper PMC7933930, “Development of a small molecule that corrects misfolding and increases secretion of Z α1‐antitrypsin” (EMBO Molecular Medicine, 2021)

How the values were obtained:
Vasopressin V1a = Vasopressin V1a (Homo sapiens, UniProt P37288); assay: Off‐target panel: Vasopressin V1a (DRX); format: cell-based; details: Antagonist, read-out: Mean (PXC50)
Description: (§1) GSK716 selectivity and PK properties were profiled in order to investigate the suitability of GSK716 for progression into in vivo studies and the potential for taking it forward as a clinical candidate for testing in humans. Since GSK716 results in loss of inhibitory activity of α1‐antitrypsin, the effect of the compound was assessed on other closely related serpins. […] Furthermore, there were no off‐target effects in a panel of assays considered predictive of known safety liabilities that precluded further development of GSK716 (Table EV1).

[1] = target: Aryl hydrocarbon receptor (Homo sapiens, UniProt P35869); assay: Off‐target panel: Aryl hydrocarbon receptor; format: cell-based; details: Activator, read-out: Mean (PXC50)
Chain of Aryl hydrocarbon receptor (P35869 11-848, species assumed): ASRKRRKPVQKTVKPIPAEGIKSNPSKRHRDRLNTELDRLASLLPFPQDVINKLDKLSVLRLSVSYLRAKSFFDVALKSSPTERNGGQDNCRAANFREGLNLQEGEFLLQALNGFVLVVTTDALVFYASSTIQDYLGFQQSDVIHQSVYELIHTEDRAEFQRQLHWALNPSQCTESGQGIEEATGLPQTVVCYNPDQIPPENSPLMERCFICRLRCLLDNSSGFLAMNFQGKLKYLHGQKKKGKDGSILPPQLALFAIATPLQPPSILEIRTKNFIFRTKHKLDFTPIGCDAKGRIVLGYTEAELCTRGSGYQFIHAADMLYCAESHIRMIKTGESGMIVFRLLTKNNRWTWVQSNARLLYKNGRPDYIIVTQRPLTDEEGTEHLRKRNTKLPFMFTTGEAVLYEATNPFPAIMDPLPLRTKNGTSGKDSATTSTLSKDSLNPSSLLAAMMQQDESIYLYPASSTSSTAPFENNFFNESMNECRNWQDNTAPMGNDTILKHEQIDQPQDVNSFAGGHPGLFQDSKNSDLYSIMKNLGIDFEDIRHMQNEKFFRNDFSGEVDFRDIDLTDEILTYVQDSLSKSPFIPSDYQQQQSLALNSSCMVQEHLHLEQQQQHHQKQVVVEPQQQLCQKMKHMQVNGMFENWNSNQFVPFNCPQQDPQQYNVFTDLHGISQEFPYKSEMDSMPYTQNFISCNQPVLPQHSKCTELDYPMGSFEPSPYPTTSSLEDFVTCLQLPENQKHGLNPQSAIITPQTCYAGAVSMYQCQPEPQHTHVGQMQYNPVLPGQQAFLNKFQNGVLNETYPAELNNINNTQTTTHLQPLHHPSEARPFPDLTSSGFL
Description: as §1

α1‐antitrypsin = assay: Equilibrium unfolding in guanidinium hydrochloride with bis‐ANS; format: biochemical, human; details: 50 µM GSK716, guanidinium hydrochloride; ~ 1.3 M in its absence
Source text: (§2) Polymerisation of α1‐antitrypsin involves transition through a transient intermediate state known as M*, that is readily populated by the Z variant (Dafforn et al, 1999; Knaupp et al, 2010). The M* conformational ensemble appears to be a distinct species between the native state conformation and that of the final polymer. One of the hallmarks of M* is its recognition by environment‐sensitive fluorescent reporter dyes. Thermal shift assays that make use of the dye SYPRO Orange report the stability of the protein native state against heat‐induced unfolding. […] Native state stability can also be probed by equilibrium unfolding using chemical denaturants, where a peak in bis‐ANS fluorescence corresponds with a maximally populated unfolding intermediate (James & Bottomley, 1998). […] The association of GSK716 induced a marked quenching and blue‐shift of the α1‐antitrypsin intrinsic tryptophan fluorescence spectrum (Fig 4D, inset). The rate of change in fluorescence during association of 10µM GSK716 was proportional to the propensity of α1‐antitrypsin mutants to form polymers in vivo: inert (M), mild (S), moderate (Baghdad) and severe (Z) α1‐antitrypsin (Fig 4D, top and bottom). […]

Kv1.5 = Kv1.5 (Homo sapiens, UniProt P22460); assay: Off‐target panel: Kv1.5; format: cell-based; details: Blocker, read-out: Mean (PXC50)
Chain of Kv1.5 (P22460 whole entry): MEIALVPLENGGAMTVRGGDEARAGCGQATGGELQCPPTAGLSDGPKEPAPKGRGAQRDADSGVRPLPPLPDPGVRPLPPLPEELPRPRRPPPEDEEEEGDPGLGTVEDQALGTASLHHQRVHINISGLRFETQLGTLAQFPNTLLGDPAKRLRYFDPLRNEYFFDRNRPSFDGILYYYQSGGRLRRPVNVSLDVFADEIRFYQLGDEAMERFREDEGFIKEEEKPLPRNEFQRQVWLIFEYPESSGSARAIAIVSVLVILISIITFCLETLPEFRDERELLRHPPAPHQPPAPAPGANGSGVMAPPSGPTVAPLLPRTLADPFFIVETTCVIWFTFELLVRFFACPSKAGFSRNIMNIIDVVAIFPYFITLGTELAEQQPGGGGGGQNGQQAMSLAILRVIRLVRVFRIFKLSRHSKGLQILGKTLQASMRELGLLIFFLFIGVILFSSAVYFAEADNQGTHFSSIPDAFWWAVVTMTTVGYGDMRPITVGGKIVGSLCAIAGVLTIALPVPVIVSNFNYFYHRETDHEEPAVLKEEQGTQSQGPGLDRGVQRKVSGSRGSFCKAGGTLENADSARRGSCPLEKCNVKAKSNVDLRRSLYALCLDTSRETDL
Description: as §1

neuroserpin = neuroserpin (Homo sapiens, UniProt Q99574); assay: Inhibitory activity of neuroserpin against trypsin; format: biochemical
Chain of neuroserpin (Q99574 17-410, species assumed): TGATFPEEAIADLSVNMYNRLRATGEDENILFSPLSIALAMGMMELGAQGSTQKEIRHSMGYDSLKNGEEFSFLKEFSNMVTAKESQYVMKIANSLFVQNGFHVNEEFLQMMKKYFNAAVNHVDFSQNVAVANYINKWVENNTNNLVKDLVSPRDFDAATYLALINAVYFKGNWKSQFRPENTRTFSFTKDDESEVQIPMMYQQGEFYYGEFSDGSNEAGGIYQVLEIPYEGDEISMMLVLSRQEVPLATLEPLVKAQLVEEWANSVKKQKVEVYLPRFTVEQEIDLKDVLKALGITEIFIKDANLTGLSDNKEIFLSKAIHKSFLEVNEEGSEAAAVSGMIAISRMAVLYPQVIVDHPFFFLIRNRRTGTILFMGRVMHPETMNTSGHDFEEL
Description: Figure 5 The effect of GSK716 on serpin inhibitory activity • α1‐Antitrypsin was incubated at varying molar ratios with the model protease bovine α‐chymotrypsin, and the residual protease activity determined. The intercept of the regression with the abscissa reflects the number of molecules of α1‐antitrypsin required to inhibit one molecule of chymotrypsin in the presence (+c) and absence (−c) of 50µM GSK716. Error bars reflect ± SEM of three independent experiments. • M α1‐antitrypsin was incubated with different molar ratios of chymotrypsin and resolved by SDS–PAGE. The position of covalent α1‐antitrypsin‐chymotrypsin complex (cpx), native (nat) and cleaved (clv) is shown. • The inhibitory activity of α1‐antichymotrypsin against chymotrypsin (ach + chym), neuroserpin against trypsin (neus + tryp), and antithrombin against thrombin (atiii + thrombin) was determined in the presence and absence of GSK716. Error bars reflect ± SD of two independent experiments.
GSK716 selectivity and PK properties were profiled in order to investigate the suitability of GSK716 for progression into in vivo studies and the potential for taking it forward as a clinical candidate for testing in humans. Since GSK716 results in loss of inhibitory activity of α1‐antitrypsin, the effect of the compound was assessed on other closely related serpins. […]

Histamine H1 = Histamine H1 (Homo sapiens, UniProt P35367); assay: Off‐target panel: Histamine H1 (DRX); format: cell-based; details: Antagonist, read-out: Mean (PXC50) (converted)
Chain of Histamine H1 (P35367 whole entry): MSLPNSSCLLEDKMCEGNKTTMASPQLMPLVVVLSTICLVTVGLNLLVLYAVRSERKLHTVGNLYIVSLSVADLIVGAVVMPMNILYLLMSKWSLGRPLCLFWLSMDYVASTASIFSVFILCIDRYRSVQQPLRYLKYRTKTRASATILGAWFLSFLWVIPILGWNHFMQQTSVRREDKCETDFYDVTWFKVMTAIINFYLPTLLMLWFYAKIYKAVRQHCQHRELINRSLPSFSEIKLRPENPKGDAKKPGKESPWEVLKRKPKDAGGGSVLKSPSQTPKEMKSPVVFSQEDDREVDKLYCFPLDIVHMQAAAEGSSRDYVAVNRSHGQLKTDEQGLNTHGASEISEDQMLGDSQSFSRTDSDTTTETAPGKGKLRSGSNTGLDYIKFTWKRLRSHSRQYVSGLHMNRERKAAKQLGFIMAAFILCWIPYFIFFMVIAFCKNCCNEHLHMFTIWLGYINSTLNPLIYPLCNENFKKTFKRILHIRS
Description: as §1

PXR (human) = PXR (human) (Homo sapiens, UniProt O75469); assay: Off‐target panel: PXR (human); format: cell-based; details: Activator, read-out: Mean (PXC50) (converted)
Chain of PXR (human) (O75469 whole entry): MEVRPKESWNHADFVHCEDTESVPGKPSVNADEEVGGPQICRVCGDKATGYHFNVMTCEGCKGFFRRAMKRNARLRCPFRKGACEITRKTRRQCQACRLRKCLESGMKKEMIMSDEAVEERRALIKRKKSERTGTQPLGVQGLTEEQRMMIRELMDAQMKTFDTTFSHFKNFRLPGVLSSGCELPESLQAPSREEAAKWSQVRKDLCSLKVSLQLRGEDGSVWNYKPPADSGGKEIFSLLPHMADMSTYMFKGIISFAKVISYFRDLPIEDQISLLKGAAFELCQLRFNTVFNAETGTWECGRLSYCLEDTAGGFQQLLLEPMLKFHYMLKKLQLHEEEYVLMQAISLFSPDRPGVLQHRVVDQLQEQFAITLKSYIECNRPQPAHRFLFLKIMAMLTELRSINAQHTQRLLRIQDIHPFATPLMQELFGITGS
Description: as §1

M and Z α1‐antitrypsin = assay: Heat‐induced oligomerisation, constant temperature, non‐denaturing PAGE; format: biochemical, human; details: constant‐temperature experiment, 4 h, 48 to 65°C
Source text: as §2

Adrenergic α2C = Adrenergic α2C (Homo sapiens, UniProt P18825); assay: Off‐target panel: Adrenergic α2C; format: cell-based
Chain of Adrenergic α2C (P18825 whole entry): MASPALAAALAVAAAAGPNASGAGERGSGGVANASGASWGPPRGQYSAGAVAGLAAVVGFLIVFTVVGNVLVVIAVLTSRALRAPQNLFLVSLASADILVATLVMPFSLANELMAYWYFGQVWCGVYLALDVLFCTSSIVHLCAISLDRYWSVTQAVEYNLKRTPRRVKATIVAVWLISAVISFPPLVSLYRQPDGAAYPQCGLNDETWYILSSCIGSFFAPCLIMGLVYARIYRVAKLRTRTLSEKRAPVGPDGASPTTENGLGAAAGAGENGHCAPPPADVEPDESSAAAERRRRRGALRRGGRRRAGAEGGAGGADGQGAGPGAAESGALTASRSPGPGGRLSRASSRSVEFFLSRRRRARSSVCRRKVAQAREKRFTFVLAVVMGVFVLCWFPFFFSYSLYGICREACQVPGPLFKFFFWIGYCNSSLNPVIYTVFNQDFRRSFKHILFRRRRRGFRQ
Description: as §1

Chain of Vasopressin V1a (P37288 whole entry): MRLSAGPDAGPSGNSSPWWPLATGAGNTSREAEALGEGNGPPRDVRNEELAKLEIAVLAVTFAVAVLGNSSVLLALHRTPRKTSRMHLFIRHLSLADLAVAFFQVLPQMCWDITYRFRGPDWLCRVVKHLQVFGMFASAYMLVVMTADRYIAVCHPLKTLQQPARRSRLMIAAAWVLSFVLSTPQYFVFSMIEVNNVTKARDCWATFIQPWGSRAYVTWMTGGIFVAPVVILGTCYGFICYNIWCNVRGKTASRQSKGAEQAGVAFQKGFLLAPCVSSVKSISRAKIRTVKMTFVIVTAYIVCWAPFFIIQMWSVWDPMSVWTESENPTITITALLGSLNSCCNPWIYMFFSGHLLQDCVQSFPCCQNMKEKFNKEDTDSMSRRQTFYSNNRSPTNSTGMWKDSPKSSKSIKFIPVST

`CCC[C@@H](NC(=O)c1cccc2c1CC(=O)N2)[C@@H](O)c1cccc(F)c1C` [GSK716] was tested, and the IC50 (Vasopressin V1a) was > 50.1 µM, the EC50 [1] was > 100 µM and the “denaturant concentration at peak bis‐ANS fluorescence (maximally populated unfolding intermediate)” value (α1‐antitrypsin) was ~ 1.9 M. The IC50 (Kv1.5) was > 50.1 µM, the “inhibitory activity of neuroserpin towards its cognate protease” value (neuroserpin) was “did not affect” and the IC50 (Histamine H1) was 10 µM. The EC50 (PXR (human)) was 20 µM, the “temperature of oligomer generation” value (M and Z α1‐antitrypsin) was “oligomers were generated at higher temperatures in the presence of the compound than in its absence” and the EC50 (Adrenergic α2C) was > 100 µM.
